Assay results from ChEMBL document CHEMBL1133958, “Derivatives of (2R,3R,4S)-2-aminomethylpyrrolidine-3,4-diol are selective alpha-mannosidase inhibitors” (Bioorg Med Chem Lett, 2001).
Active and inactive are the calls of the source. The calls are words filed in the database; no cut-off is given here.

How the values were obtained:
[1] = molecular target: T1, Alpha-glucosidase (Oryza sativa Japonica Group) (UniProt Q9LGC6); assay: Percentage inhibition of Alpha-glucosidase from Rice (maltase) at 1 mM; […]
T1 sequence (whole entry): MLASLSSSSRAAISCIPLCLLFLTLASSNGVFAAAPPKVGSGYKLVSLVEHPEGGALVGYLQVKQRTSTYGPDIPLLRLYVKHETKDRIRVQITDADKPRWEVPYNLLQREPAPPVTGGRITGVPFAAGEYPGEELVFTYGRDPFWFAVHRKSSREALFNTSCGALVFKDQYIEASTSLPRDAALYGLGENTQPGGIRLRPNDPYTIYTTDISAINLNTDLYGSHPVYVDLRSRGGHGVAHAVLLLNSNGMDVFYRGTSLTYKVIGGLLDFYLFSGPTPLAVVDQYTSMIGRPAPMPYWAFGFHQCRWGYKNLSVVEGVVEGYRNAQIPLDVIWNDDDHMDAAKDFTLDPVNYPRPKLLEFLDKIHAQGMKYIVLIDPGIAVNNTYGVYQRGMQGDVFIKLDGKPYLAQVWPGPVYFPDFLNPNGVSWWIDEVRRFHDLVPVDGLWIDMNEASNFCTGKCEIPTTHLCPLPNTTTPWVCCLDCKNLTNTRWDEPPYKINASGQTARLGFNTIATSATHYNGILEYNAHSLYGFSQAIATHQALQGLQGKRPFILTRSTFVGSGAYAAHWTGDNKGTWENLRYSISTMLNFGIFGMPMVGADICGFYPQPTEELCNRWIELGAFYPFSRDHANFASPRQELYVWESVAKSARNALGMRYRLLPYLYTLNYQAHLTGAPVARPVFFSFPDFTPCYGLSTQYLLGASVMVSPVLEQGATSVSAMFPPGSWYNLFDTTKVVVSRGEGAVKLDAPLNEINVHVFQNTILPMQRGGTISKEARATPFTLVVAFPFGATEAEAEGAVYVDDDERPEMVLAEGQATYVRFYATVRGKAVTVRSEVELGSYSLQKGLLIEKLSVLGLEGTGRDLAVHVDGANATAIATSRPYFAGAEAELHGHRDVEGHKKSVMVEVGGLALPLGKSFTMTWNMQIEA

Saccharomyces cerevisiae = assay: Percentage inhibition of Alpha-glucosidase from Baker yeast (isomaltase) at 1 mM
[2] = molecular target: Glucoamylase (Aspergillus niger) (UniProt P69328); assay: Percentage inhibition of Alpha-glucosidase from Aspergillus niger (amyloglucosidase) at 1 mM; No inhibition
[3] = molecular target: Beta-glucosidase A (Caldicellulosiruptor saccharolyticus) (UniProt P10482); assay: Percentage inhibition of Beta-Glucosidase from Caldocellum saccharol. at 1 mM
Beta-glucosidase A = Beta-glucosidase A (Caldicellulosiruptor saccharolyticus, UniProt P10482); assay: Inhibitory activity towards Beta-Glucosidase from Caldocellum saccharol
[4] = molecular target: T2, Glucoamylase 1 (Rhizopus oryzae) (UniProt P07683); assay: Percentage inhibition of Alpha-glucosidase from Rhizopus mold (amyloglucosidase) at 1 mM concentration; No inhibition; settings: Rhizopus arrhizus
T2 sequence (whole entry): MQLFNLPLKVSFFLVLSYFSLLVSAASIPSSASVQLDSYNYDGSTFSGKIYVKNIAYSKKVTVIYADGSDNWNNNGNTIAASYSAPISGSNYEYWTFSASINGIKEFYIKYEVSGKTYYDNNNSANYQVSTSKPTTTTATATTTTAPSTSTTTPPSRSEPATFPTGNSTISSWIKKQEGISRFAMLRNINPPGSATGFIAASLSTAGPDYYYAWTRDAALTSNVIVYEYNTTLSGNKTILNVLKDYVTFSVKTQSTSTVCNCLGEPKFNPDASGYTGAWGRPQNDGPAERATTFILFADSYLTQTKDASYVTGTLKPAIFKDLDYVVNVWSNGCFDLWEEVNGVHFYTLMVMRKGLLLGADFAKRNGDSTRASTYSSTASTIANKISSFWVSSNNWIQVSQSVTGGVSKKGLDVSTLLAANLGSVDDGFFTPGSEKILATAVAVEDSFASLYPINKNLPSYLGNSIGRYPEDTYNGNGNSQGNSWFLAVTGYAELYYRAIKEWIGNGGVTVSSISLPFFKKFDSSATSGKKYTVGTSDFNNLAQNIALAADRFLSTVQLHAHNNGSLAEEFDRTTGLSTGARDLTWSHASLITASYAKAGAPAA

[5] = molecular target: Beta-galactosidase (Escherichia coli K-12) (UniProt P00722); assay: Percentage inhibition of Beta-galactosidase from Escherichia coli at 1 mM concentration
[6] = Percentage inhibition of Beta-galactosidase from Aspergillus oryzae at 1 mM; No inhibition
Beta-galactosidase = molecular target: T3, Beta-galactosidase (Bos taurus, UniProt Q58D55); assay: Inhibitory activity towards Beta-galactosidase from Bovine liver
T3 sequence (Q58D55 whole entry): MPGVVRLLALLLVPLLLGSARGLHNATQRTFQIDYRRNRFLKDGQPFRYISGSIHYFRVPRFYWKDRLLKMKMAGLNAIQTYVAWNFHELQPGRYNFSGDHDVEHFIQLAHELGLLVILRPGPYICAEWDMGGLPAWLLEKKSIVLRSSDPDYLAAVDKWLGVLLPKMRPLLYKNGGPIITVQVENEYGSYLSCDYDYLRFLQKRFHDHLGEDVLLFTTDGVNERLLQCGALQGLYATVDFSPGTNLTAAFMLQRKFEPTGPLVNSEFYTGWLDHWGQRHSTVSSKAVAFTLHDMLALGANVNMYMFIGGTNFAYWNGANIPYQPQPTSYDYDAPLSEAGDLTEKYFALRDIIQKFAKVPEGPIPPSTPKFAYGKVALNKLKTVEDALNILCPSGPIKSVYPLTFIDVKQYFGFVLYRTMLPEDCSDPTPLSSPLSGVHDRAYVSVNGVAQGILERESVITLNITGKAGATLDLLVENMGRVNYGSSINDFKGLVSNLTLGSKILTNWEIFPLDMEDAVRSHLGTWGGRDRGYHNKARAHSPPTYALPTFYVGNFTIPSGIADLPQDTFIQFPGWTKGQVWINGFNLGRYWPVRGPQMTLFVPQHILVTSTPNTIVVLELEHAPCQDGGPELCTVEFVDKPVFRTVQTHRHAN

[7] = Inhibitory activity towards Alpha-glucosidase from Baker yeast (isomaltase); set-up: species or system Saccharomyces cerevisiae
[8] = Percentage inhibition of Beta-galactosidase from Jack bean at 1 mM concentration; settings: Canavalia ensiformis

Glucoamylase (Aspergillus niger), sequence (P69328 whole entry): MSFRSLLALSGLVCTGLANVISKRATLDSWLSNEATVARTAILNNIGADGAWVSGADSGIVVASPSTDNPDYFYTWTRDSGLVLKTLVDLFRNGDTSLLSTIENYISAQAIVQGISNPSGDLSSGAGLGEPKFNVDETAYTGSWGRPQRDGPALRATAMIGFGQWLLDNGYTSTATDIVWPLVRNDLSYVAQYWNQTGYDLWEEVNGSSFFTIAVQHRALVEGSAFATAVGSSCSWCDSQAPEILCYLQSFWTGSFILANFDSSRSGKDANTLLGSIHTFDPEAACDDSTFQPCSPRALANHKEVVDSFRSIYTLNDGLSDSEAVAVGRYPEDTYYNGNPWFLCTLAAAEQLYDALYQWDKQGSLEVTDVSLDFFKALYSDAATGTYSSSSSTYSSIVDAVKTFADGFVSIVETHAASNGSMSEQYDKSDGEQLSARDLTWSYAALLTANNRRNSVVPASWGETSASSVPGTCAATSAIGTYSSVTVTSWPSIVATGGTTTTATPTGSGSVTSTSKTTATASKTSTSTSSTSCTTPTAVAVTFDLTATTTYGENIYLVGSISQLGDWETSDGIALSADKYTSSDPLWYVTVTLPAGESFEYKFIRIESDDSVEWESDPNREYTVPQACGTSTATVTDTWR
Beta-galactosidase (Escherichia coli K-12), sequence (P00722 whole entry): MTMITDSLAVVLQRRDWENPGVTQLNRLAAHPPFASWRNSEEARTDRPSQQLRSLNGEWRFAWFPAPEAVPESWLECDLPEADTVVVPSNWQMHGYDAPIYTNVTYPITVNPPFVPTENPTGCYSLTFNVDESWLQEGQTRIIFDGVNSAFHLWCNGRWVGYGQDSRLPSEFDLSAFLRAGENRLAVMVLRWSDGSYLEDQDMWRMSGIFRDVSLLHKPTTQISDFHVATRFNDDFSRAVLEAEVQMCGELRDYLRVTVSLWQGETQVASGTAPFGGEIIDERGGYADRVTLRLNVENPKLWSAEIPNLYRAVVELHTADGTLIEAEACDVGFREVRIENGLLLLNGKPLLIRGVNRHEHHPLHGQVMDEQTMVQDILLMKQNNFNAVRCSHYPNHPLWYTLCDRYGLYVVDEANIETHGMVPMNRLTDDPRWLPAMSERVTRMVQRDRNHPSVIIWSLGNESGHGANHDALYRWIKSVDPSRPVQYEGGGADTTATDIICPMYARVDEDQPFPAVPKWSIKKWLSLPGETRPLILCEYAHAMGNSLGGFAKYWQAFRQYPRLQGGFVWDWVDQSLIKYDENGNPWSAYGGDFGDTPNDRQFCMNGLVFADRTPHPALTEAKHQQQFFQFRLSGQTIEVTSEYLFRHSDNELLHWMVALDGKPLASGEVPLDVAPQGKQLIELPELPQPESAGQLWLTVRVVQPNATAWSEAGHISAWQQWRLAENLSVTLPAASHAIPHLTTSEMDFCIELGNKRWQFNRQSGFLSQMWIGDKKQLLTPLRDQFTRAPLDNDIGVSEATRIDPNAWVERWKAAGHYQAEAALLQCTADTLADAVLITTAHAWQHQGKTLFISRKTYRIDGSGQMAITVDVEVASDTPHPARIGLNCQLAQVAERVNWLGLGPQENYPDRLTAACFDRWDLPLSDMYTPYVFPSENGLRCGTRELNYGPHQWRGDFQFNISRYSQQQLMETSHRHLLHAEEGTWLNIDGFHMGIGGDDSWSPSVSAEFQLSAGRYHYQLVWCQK
Beta-glucosidase A, sequence (P10482 whole entry): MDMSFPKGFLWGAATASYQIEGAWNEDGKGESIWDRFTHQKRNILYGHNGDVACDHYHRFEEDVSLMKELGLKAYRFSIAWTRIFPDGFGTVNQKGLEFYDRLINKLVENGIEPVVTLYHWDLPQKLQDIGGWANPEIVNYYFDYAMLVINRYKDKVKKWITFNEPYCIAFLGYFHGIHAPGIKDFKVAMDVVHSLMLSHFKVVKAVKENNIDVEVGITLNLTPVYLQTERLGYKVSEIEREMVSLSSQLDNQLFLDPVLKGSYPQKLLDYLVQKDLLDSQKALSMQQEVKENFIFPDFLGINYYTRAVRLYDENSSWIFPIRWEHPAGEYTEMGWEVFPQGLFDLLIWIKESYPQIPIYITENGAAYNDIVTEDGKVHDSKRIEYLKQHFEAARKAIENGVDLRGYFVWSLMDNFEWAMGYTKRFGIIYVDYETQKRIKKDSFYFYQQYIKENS
Beta-glucosidase A (Caldicellulosiruptor saccharolyticus), sequence (P10482 whole entry): as above

- inhibition [1]: inactive
- inhibition (Saccharomyces cerevisiae): 90%
- inhibition [2]: inactive
- inhibition [3]: 76%
- Ki (Beta-glucosidase A): 120 µM
- inhibition [4]: inactive
- inhibition [5]: 39%
- inhibition [6]: inactive
- IC50 (Beta-galactosidase): 770 µM
- IC50 [7]: 120 µM
- Ki [7]: 40 µM
- inhibition [8]: 26%
SMILES: OC1CNC(CNCC2CCN(Cc3ccccc3)CC2)C1O (configuration not stated)
